ChEMBL document CHEMBL5385920, “Discovery of P450-Modified Sesquiterpenoids Levinoids A-D through Global Genome Mining” (J Nat Prod, 2024)
Active and inactive are the calls of the source. No cut-off for these calls is given here.

Assays:
HT-22 [1] = experiment: Neuroprotective activity against glutamate-induced cytotoxicity in HT-22 cells assessed as increase in cell viability at 10 ug/ml measured after 24 hrs in presence of glutamate by CCK8 assay; assay type: functional, cell-based; details: Mus musculus, dose 10.0 µg/ml
HT-22 [2] = experiment: Neuroprotective activity against glutamate-induced cytotoxicity in HT-22 cells assessed as increase in cell viability at 10 ug/ml measured after 24 hrs in presence of glutamate by CCK8 assay relative to control; assay type: functional, Mus musculus; details: dose 10 µg/ml
HT-22 [3] = experiment: Neuroprotective activity against glutamate-induced cytotoxicity in HT-22 cells assessed as increase in cell viability measured after 24 hrs in presence of glutamate by CCK8 assay; assay type: functional, cell-based; details: Mus musculus, HT-22, 24 h

Structure (SMILES): CC1=CC[C@@H](C(C)C)[C@@]2(O)C=C(C(=O)O)CC[C@@H]12
- Activity (HT-22 [1]): inactive

Structure (SMILES): CC1=CC[C@@H](C(C)C)[C@H]2C=C(C(=O)O)[C@@H](O)C[C@@H]12
- Activity (HT-22 [1]): inactive

Structure (SMILES): CC1=CC[C@@H](C(C)C)[C@H]2C=C(C(=O)O)CC[C@@H]12
- Activity (HT-22 [1]): inactive

Structure (SMILES): CC1=CC[C@@H](C(C)C)[C@H]2C=C(C(=O)O)CC[C@@]12O
- Activity (HT-22 [2]): 82%
- EC50 (HT-22 [3]): ~21 µM
